Source: patent EP0973746B1, “SUBSTITUTED 3-CYANO QUINOLINES” (Wyeth Holdings Corporation, priority 1997, dated 1998)
≈ marks a conversion by molar mass, not a printed value. Like-named read-outs stand apart in the source and are kept apart here.

Key:
[1] = test system: SW620; experiment: Inhibition of cancer cell growth as measured by cell number, SW620; type: cell-based, human; details: Homo sapiens, SW-620, 48 h, Table 4;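 further: SW620 was included as a cell line with little or no EGFR or HER2/neu expression, in contrast to receptor-overexpressing lines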
Text: (§1) The cell lines were chosen since they overexpressed epidermal growth factor receptor (EGFR) (i.e. A431) or HER2/neu (SKBR3), or had little to no expression of the these receptors (SW620, LOX, MCF7).

[2] = test system: NEC; experiment: Inhibition of cancer cell growth as measured by cell number, NEC; type: cell-based; details: Homo sapiens, 48 h, read-out: IC50 NEC
[3] = test system: CCRF-CFM; experiment: Inhibition of cancer cell growth as measured by cell number, CCRF-CFM; type: cell-based; details: Homo sapiens, read-out: IC50 CCRF-CFM
[4] = test system: LNCAP; experiment: Inhibition of cancer cell growth as measured by cell number, LNCAP; type: cell-based; details: Homo sapiens, 48 h, read-out: IC50 LNCAP
[5] = test system: SW948; experiment: Inhibition of cancer cell growth as measured by cell number, SW948; type: cell-based; details: Homo sapiens, read-out: IC50 SW948
[6] = test system: A27805; experiment: Inhibition of cancer cell growth as measured by cell number, A27805; type: cell-based; details: Homo sapiens, read-out: IC50 A27805
[7] = test system: COLO205; experiment: Inhibition of cancer cell growth as measured by cell number, COLO205; type: cell-based; details: Homo sapiens, COLO 205, 48 h, read-out: IC50 COLO205
[8] = test system: HCT15; experiment: Inhibition of cancer cell growth as measured by cell number, HCT15; type: cell-based; details: Homo sapiens, read-out: IC50 HCT15
[9] = test system: MIP; experiment: Inhibition of cancer cell growth as measured by cell number, MIP; type: cell-based; details: Homo sapiens; cell number, Sulforhodamine B, 48 hours exposure; Table 4; read-out: IC50 MIP
[10] = test system: A549; experiment: Inhibition of cancer cell growth as measured by cell number, A549; type: cell-based; details: Homo sapiens, read-out: IC50 A549
[11] = test system: SKBR3; experiment: Inhibition of cancer cell growth as measured by cell number, SKBR3; type: cell-based, human; details: Homo sapiens, SK-BR-3, 48 h, read-out: IC50 SKBR3, cell number, Sulforhodamine B, 48 hours exposure; Table 7;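 further: SK-BR-3 cells were selected as a line overexpressing HER2/neu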
Text: as §1

[12] = test system: LOX; experiment: Inhibition of cancer cell growth as measured by cell number, LOX; type: cell-based, human; details: Homo sapiens, LOX, 48 h, Table 6;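 further: LOX cells served as a line with low or absent EGFR and HER2/neu expression, in contrast to receptor-overexpressing lines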
Text: as §1

[13] = target: recombinant human MEK 1 (MAPKK) and recombinant human ERK2 (MAPK); experiment: Mitogen Activated Protein Kinase (MAPK) assay, two component coupled MEK 1 / ERK2; type: biochemical; details: separate entries for the same compound = evaluated more than one time;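 further: MEK 1-activated ERK2 phosphorylates MBP or Myc peptide with 33P-ATP, filter capture and scintillation counting, inhibitor preincubated with ERK2 30 min at 0 °C, inhibition relative to uninhibited control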
Experimental: To evaluate inhibitors of the MAP (mitogen activated protein) kinase a two component coupled standard pharmacological test procedure, which measures phosphorylation of a serine/threonine residue in an appropriate sequence in the substrate in the presence and absence of a putative inhibitor, was used. Recombinant human MEK 1 (MAPKK) was first used to activate recombinant human ERK2 (MAPK) and the activated MAPK (ERK) was incubated with substrate (MBP peptide or MYC peptide) in the presence of ATP, Mg^+2 and radiolabeled ^33P ATP. The phosphorylated peptide was captured on a P 81 phosphocellulose filter (paper filter or embedded in microtiter plate) washed and counted by scintillation methods.
The peptide substrates used in the assay are MBP, peptide substrate ([sequence]), or synthetic Myc substrate, ([sequence]•5 TFA. The recombinant enzymes used were prepared as GST fusion proteins of human ERK 2 and human MEK 1. Inhibitor samples were prepared as 10X stocks in 10% DMSO and an appropriate aliquot was used to deliver either 10 ug/ml for a single point screening dose or 100, 10, 1, and 0.1 uM final concentration for a dose response curve. Final DMSO concentrations were less than or equal to 1%.
The reaction was run as follows in 50 mM Tris kinase buffer, pH 7.4 in a reaction volume of 50 ul. The appropriate volume of kinase buffer and inhibitor sample was added to the tube. Appropriate dilution of enzyme was delivered to give 2-5 ug recombinant MAPK (Erk ) per tube. The inhibitor was incubated with MAPK (Erk) for 30 min at 0 deg. […] Recombinant Mek (MAPKK) ( 0.5-2.5 ug) or fully activated Mek (0.05-0.1 units) was added to activate the Erk and incubated for 30 min at 30° C. […] Samples were incubated at 30°C for 30 minutes and the reaction was stopped by adding 25 µl of ice cold 10 %TCA .After samples were chilled on ice for 30 min, 20 µl of sample was transferred onto P 81 phosphocellulose filter paper or appropriate MTP with embedded P 81 filter. Filter papers or MTP were washed 2 times with a large volume of 1% acetic acid, then 2 times with water. The filters or MTP were briefly air dried before addition of scintillant and samples were counted in the appropriate scintillation counter set up for reading ^33P isotope.
The raw data was captured as cpm. Sample replicates were averaged and corrected for background count. Mean cpm data was tabulated by group and % inhibition by a test compound was calculated as (corrected cpm control- corrected. cpm sample/control) X 100 = % inhibition.

[14] = test system: T47D; experiment: Inhibition of cancer cell growth as measured by cell number, T47D; type: cell-based; details: Homo sapiens
[15] = target: epidermal growth factor receptor kinase (Homo sapiens, UniProt P00533); experiment: biochemical
epidermal growth factor receptor kinase, sequence (P00533 25-1210): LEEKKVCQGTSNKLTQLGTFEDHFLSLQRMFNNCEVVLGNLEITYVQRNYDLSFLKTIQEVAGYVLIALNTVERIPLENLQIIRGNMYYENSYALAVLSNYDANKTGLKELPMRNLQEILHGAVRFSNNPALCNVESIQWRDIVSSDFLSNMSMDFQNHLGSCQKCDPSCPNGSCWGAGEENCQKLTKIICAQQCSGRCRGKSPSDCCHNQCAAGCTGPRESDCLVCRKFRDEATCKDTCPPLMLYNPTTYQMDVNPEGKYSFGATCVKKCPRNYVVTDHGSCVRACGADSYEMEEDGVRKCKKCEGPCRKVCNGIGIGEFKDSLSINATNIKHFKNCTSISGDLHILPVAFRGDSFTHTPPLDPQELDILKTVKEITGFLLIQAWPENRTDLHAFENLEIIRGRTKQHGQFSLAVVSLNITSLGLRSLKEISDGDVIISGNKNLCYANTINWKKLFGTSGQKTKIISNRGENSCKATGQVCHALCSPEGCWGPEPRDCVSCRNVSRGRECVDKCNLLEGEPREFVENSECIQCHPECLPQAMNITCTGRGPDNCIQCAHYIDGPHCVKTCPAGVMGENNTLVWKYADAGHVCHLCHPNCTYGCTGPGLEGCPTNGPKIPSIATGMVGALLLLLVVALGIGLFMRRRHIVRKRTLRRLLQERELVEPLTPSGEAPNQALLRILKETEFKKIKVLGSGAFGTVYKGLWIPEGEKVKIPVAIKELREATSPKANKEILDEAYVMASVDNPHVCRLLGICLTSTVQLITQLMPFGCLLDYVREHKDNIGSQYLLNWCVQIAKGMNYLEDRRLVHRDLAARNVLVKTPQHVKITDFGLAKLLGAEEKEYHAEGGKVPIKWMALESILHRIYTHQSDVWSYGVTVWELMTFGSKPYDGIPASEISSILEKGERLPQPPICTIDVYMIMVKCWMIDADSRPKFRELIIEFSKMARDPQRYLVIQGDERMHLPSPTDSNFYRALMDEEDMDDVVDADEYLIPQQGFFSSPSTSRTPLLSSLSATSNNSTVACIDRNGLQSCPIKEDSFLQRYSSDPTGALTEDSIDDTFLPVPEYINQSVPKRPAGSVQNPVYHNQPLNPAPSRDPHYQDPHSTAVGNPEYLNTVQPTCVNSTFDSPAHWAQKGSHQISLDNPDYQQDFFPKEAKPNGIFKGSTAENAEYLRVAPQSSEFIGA

[16] = test system: HL60; experiment: Inhibition of cancer cell growth as measured by cell number, HL60; type: cell-based; details: Homo sapiens, read-out: IC50 HL60
[17] = test system: LS174T; experiment: Inhibition of cancer cell growth as measured by cell number, LS174T; type: cell-based; details: Homo sapiens
[18] = test system: A431; experiment: Inhibition of cancer cell growth as measured by cell number, A431; type: cell-based, human; details: Homo sapiens, A-431, 48 h, Table 6;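 further: human A431 line, picked because it overexpresses epidermal growth factor receptor (EGFR)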
Text: as §1

[19] = test system: CX1; experiment: Inhibition of cancer cell growth as measured by cell number, CX1; type: cell-based; details: Homo sapiens, read-out: IC50 CX1
[20] = test system: A2780DDP; experiment: Inhibition of cancer cell growth as measured by cell number, A2780DDP; type: cell-based; details: Homo sapiens, read-out: IC50 A2780DDP
[21] = test system: DU145; experiment: Inhibition of cancer cell growth as measured by cell number, DU145; type: cell-based; details: Homo sapiens, read-out: IC50 DU145
[22] = test system: PC3; experiment: Inhibition of cancer cell growth as measured by cell number, PC3; type: cell-based; details: Homo sapiens, read-out: IC50 PC3
[23] = test system: MCF7; experiment: Inhibition of cancer cell growth as measured by cell number, MCF7; type: cell-based, human; details: Homo sapiens, MCF7, 48 h, read-out: IC50 MCF7, cell number, Sulforhodamine B, 48 hours exposure; Table 5;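 further: MCF7 was included as a line with little or no EGFR or HER2/neu expression, in contrast to the receptor-overexpressing lines of the panel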
Text: as §1

[24] = test system: B7474; experiment: Inhibition of cancer cell growth as measured by cell number, B7474; type: cell-based; details: Homo sapiens, read-out: IC50 B7474
[25] = test system: NHEK; experiment: Inhibition of cell growth by incorporation of [3H]-thymidine, NHEK; type: cell-based, human; details: Homo sapiens, read-out: IC50 NHEK
Experimental: Representative compounds of this invention were evaluated for their ability to inhibit the growth of the cell lines described below in vitro. The inhibition is quantitated by measuring the decrease in the incorporation of radio-labeled thymidine when the cells are grown in the presence of the inhibitor. […] Cells were routinely grown in a humidified incubator in 5% CO2 in air.
Cells were seeded at 10,000 cells/well in 96 well plates in complete media and allowed to grow to log phase. At this stage the complete media was replaced with media containing 0.5% FBS (for cells growing in 10% FBS) or media lacking epidermal growth factor (EGF) (for cells growing in serum free media). […] Media with test compound was then removed and complete media was added back. The cells were allowed to grow for 18 hours. This is followed by incubation in [^3H]thymidine (1mCi/ml in serum/EGF media) for 4 hours. Cells were lysed in 0.5 M NaOH for at least 30 min at 37°C and radioactivity analyzed.
The % inhibition of the compound evaluated was determined for at least three different concentrations and the IC50 value evaluated from the dose response curve. […] CPM(control) is in units of counts per minute and is a number expressing the amount of [^3H]thymidine incorporated onto the DNA when cells are grown in the absence of test compound as measured by liquid scintillation counting.

[26] = test system: A431; experiment: Inhibition of cell growth by incorporation of [3H]-thymidine, A431; type: cell-based, human; details: Homo sapiens
[27] = test system: LX1; experiment: Inhibition of cancer cell growth as measured by cell number, LX1; type: cell-based; details: Homo sapiens, read-out: IC50 LX1
[28] = test system: CACO2; experiment: Inhibition of cancer cell growth as measured by cell number, CACO2; type: cell-based; details: Homo sapiens, read-out: IC50 CACO2
[29] = test system: HTB161; experiment: Inhibition of cancer cell growth as measured by cell number, HTB161; type: cell-based; details: Homo sapiens, read-out: IC50 HTB161
[30] = test system: CCL228; experiment: Inhibition of cancer cell growth as measured by cell number, CCL228; type: cell-based; details: Homo sapiens, read-out: IC50 CCL228
[31] = read-out: IC50 SW620, cell number, Sulforhodamine B, 48 hours exposure
[32] = read-out: IC50 LOX, cell number, Sulforhodamine B, 48 hours exposure
[33] = read-out: IC50 A431, cell number, Sulforhodamine B, 48 hours exposure
[34] = cell number, Sulforhodamine B, 48 hours exposure, Table 4

## CC#CC(=O)Nc1cc2c(Nc3cccc(Br)c3)c(C#N)cnc2cc1OC [Example 8, N-[4-[(3-Bromophenyl)amino]-3-cyano-7-methoxy-6-guinolinyl]-2-butynamide]
[1]; [31]
  IC50: 2.5 µg/mL (≈ 5.75 µM)
[2]
  IC50: 9.3 µg/mL (≈ 21.4 µM)
[3]; 48 h
  IC50: 0.823 µg/mL (≈ 1.89 µM)
[4]
  IC50: 59.4 µg/mL (≈ 137 µM)
[5]; SW948, 48 h
  IC50: 86.9 µg/mL (≈ 200 µM)
[6]; 48 h
  IC50: 0.912 µg/mL (≈ 2.09 µM)
[7]
  IC50: 2.49 µg/mL (≈ 5.72 µM)
[8]; HCT-15, 48 h
  IC50: 10.9 µg/mL (≈ 25.1 µM)
[9]
  IC50: 0.354 µg/mL (≈ 0.813 µM)
[10]; A549, 48 h
  IC50: 7.28 µg/mL (≈ 16.7 µM)
[11]
  IC50: 38.3 µg/mL (≈ 87.9 µM)
[12]; [32]
  IC50: 0.647 µg/mL (≈ 1.49 µM)
[13]
  IC50: > 100000 nM
[14]; 48 h, read-out: IC50 T47D
  IC50: 39.5 µg/mL (≈ 90.7 µM)
[15]
  IC50: 150 nM
[16]; HL-60, 48 h
  IC50: 18.9 µg/mL (≈ 43.5 µM)
[17]; 48 h, read-out: IC50 LS174T
  IC50: 2.03 µg/mL (≈ 4.66 µM)
[18]; [33]
  IC50: 9.59 µg/mL (≈ 22 µM)
[19]; CX-1, 48 h
  IC50: 7.55 µg/mL (≈ 17.3 µM)
[20]; 48 h
  IC50: 6.79 µg/mL (≈ 15.6 µM)
[21]; DU-145, 48 h
  IC50: 6.47 µg/mL (≈ 14.9 µM)
[22]; PC-3, 48 h
  IC50: 53.4 µg/mL (≈ 123 µM)
[23]
  IC50: 53.2 µg/mL (≈ 122 µM)
[24]; 48 h
  IC50: 55.5 µg/mL (≈ 127 µM)
[25]
  IC50: 200 nM
[26]; A-431, read-out: IC50 A431
  IC50: 40000 nM
[27]; LX-1, 48 h
  IC50: 0.932 µg/mL (≈ 2.14 µM)
[28]; Caco-2, 48 h
  IC50: 2.33 µg/mL (≈ 5.35 µM)
[29]; 48 h
  IC50: 98.8 µg/mL (≈ 227 µM)
[30]; 48 h
  IC50: 8.67 µg/mL (≈ 19.9 µM)

## COc1cc2ncc(C#N)c(Nc3cccc(Br)c3)c2cc1N [Example 7, 6-Amino-4-[(3-bromophenyl)amino] -7-methoxy-3-quinolinecarbonitrile]
[1]; [31]
  IC50: 5.84 µg/mL (≈ 15.8 µM)
[2]
  IC50: 5.18 µg/mL (≈ 14 µM)
[3]; 48 h
  IC50: 3.44 µg/mL (≈ 9.3 µM)
[4]
  IC50: 2.19 µg/mL (≈ 5.92 µM)
[5]; SW948, 48 h
  IC50: 5.85 µg/mL (≈ 15.9 µM)
[6]; 48 h
  IC50: 4.66 µg/mL (≈ 12.6 µM)
[7]
  IC50: 4.83 µg/mL (≈ 13.1 µM)
[8]; HCT-15, 48 h
  IC50: 3.98 µg/mL (≈ 10.8 µM)
[9]
  IC50: 2.39 µg/mL (≈ 6.48 µM)
[10]; A549, 48 h
  IC50: 5.93 µg/mL (≈ 16.1 µM)
[11]
  IC50: 5.6 µg/mL (≈ 15.2 µM)
[12]; [32]
  IC50: 1.45 µg/mL (≈ 3.92 µM)
[13]
  IC50: 25000 nM
[14]; 48 h, read-out: IC50 T47D
  IC50: 5.17 µg/mL (≈ 14 µM)
[16]; HL-60, 48 h
  IC50: 2.63 µg/mL (≈ 7.13 µM)
[17]; 48 h, read-out: IC50 LS174T
  IC50: 3.23 µg/mL (≈ 8.75 µM)
[18]; [33]
  IC50: 1.06 µg/mL (≈ 2.86 µM)
[19]; CX-1, 48 h
  IC50: 4.88 µg/mL (≈ 13.2 µM)
[20]; 48 h
  IC50: 4.91 µg/mL (≈ 13.3 µM)
[21]; DU-145, 48 h
  IC50: 1.09 µg/mL (≈ 2.95 µM)
[22]; PC-3, 48 h
  IC50: 7.22 µg/mL (≈ 19.6 µM)
[23]
  IC50: 5.67 µg/mL (≈ 15.4 µM)
[24]; 48 h
  IC50: 3.88 µg/mL (≈ 10.5 µM)
[25]
  IC50: 4500 nM
[26]; A-431, read-out: IC50 A431
  IC50: > 50000 nM
[27]; LX-1, 48 h
  IC50: 6.3 µg/mL (≈ 17.1 µM)
[28]; Caco-2, 48 h
  IC50: 2.3 µg/mL (≈ 6.22 µM)
[29]; 48 h
  IC50: 2.12 µg/mL (≈ 5.75 µM)
[30]; 48 h
  IC50: 6.25 µg/mL (≈ 16.9 µM)

## CC(=O)Nc1ccc2ncc(C#N)c(Nc3cccc(Br)c3)c2c1 [Example 16, N-[4-[(3-Bromophenyl)amino]-3-cyano-6-quinolinyl] acetamide]
[1]; cell number, Sulforhodamine B, 48 hours exposure, read-out: IC50 SW620
  IC50: > 100 µg/mL
[3]; cell number, Sulforhodamine B, 48 hours exposure, Table 7
  IC50: 0.729 µg/mL (≈ 1.91 µM)
[5]; SW948, cell number, Sulforhodamine B, 48 hours exposure, Table 5
  IC50: 0.928 µg/mL (≈ 2.44 µM)
[6]; [34]
  IC50: 0.602 µg/mL (≈ 1.58 µM)
[8]; HCT-15, cell number, Sulforhodamine B, 48 hours exposure, Table 5
  IC50: 0.641 µg/mL (≈ 1.68 µM)
[9]
  IC50: 0.534 µg/mL (≈ 1.4 µM)
[10]; A549, cell number, Sulforhodamine B, 48 hours exposure, Table 6
  IC50: 0.214 µg/mL (≈ 0.56 µM)
[12]; cell number, Sulforhodamine B, 48 hours exposure, read-out: IC50 LOX
  IC50: 0.316 µg/mL (≈ 0.828 µM)
[14]; cell number, Sulforhodamine B, 48 hours exposure, Table 6, read-out: IC50 T47D
  IC50: 6.55 µg/mL (≈ 17.2 µM)
[15]
  IC50: 1.5 nM
[16]; HL-60, cell number, Sulforhodamine B, 48 hours exposure, Table 7
  IC50: 0.696 µg/mL (≈ 1.83 µM)
[17]; cell number, Sulforhodamine B, 48 hours exposure, Table 5, read-out: IC50 LS174T
  IC50: 0.434 µg/mL (≈ 1.14 µM)
[18]; cell number, Sulforhodamine B, 48 hours exposure, read-out: IC50 A431
  IC50: 0.766 µg/mL (≈ 2.01 µM)
[19]; CX-1, cell number, Sulforhodamine B, 48 hours exposure, Table 4
  IC50: 0.978 µg/mL (≈ 2.56 µM)
[20]; [34]
  IC50: 0.596 µg/mL (≈ 1.56 µM)
[21]; DU-145, cell number, Sulforhodamine B, 48 hours exposure, Table 7
  IC50: 0.113 µg/mL (≈ 0.297 µM)
[22]; PC-3, cell number, Sulforhodamine B, 48 hours exposure, Table 7
  IC50: 3.04 µg/mL (≈ 7.97 µM)
[24]; cell number, Sulforhodamine B, 48 hours exposure, Table 6
  IC50: 0.899 µg/mL (≈ 2.36 µM)
[25]; [3H]-thymidine incorporation
  IC50: 60 nM
[26]; A-431, [3H]-thymidine incorporation, A431, read-out: IC50 A431
  IC50: 1800 nM
[27]; LX-1, cell number, Sulforhodamine B, 48 hours exposure, Table 6
  IC50: 0.644 µg/mL (≈ 1.69 µM)
[28]; Caco-2, cell number, Sulforhodamine B, 48 hours exposure, Table 5
  IC50: 0.71 µg/mL (≈ 1.86 µM)
[29]; [34]
  IC50: 0.667 µg/mL (≈ 1.75 µM)
[30]; cell number, Sulforhodamine B, 48 hours exposure, Table 5
  IC50: 4.38 µg/mL (≈ 11.5 µM)
